Measured values published in PubChem BioAssay (NCI).
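How tested: cells in 96-well plates exposed to compound for 48 hours at five concentrations. Here, GI50 denotes the concentration required for 50% inhibition of growth. TGI is the concentration that stops growth completely.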

Assays:
Assay in all cases: inhibition of tumour cell growth, NCI panel, 48 h
[1] = tested on: MOLT-4 leukemia
[2] = tested on: SF-268 CNS
[3] = tested on: COLO 205 colon
[4] = tested on: CCRF-CEM leukemia
[5] = tested on: U251 CNS
[6] = tested on: SF-295 CNS
[7] = tested on: EKVX NSCLC
[8] = tested on: IGROV1 ovarian
[9] = tested on: KM20L2 colon
[10] = tested on: NCI-H226 lung

| Structure (SMILES) | TGI [1] [µM] | TGI [2] [µM] | TGI [3] [µM] | TGI [4] [µM] | TGI [5] [µM] | TGI [6] [µM] | TGI [7] [µM] | TGI [8] [µM] | TGI [9] [µM] | TGI [10] [µM] | GI50 [1] [µM] | GI50 [2] [µM] | GI50 [3] [µM] | GI50 [4] [µM] | GI50 [10] [µM] | GI50 [5] [µM] | GI50 [6] [µM] | GI50 [7] [µM] | GI50 [8] [µM] |
| --- | --- | --- | --- | --- | --- | --- | --- | --- | --- | --- | --- | --- | --- | --- | --- | --- | --- | --- | --- |
| O=C(NN1C(=O)C(Cl)C1c1ccc([N+](=O)[O-])cc1)c1ccccc1O (configuration not stated) | > 100 | > 100 | > 100 | > 100 | > 100 | > 100 | > 100 | > 100 | > 100 | – | – | – | – | – | – | – | – | – | – |
| CC(=O)O[C@H]1CC[C@H]2[C@@H]3CC[C@H]4Nc5c(cnn5S(C)(=O)=O)C[C@]4(C)[C@H]3CC[C@]12C | > 100 | – | > 100 | > 100 | > 100 | > 100 | – | > 100 | – | > 100 | – | – | – | – | – | – | – | – | – |
| N/C(=N\N=C/c1cc(Cl)cc(Cl)c1O)NO | > 23 | > 100 | > 43.7 | – | > 100 | 15.2 | 37.6 | 44.3 | 30.2 | 9.82 | – | – | – | – | – | – | – | – | – |
| CCOC(=O)C1CCn2c(nc3c(=O)n(C)c(=O)n(C)c32)S1 (configuration not stated) | > 100 | > 100 | – | > 100 | > 100 | > 100 | > 100 | > 100 | > 100 | > 100 | – | – | – | – | – | – | – | – | – |
| Cn1nc2ccc3nccc(NCCNCCCl)c3c2n1 | > 100 | > 100 | > 100 | > 100 | – | > 100 | > 100 | > 100 | > 100 | > 100 | – | – | – | – | – | – | – | – | – |
| CCNC(=O)CCCCC(=O)c1c(C)[nH]c(/C=C2\N=C(c3ccc[nH]3)C=C2OC)c1C | > 100 | 6.52 | 3.65 | > 100 | 4.5 | 7.6 | 31.7 | > 100 | – | 41.1 | 2.31 | 2.41 | 1.97 | 2.59 | 20.3 | 1.99 | 2.81 | 11.2 | 3.82 |
| COC(=O)C[C@](O)(CCC(C)(C)O)C(=O)O[C@@H]1C(OC)=C[C@]23CCCN2CCc2cc4c(cc2[C@H]13)OCO4 | > 100 | 0.496 | 0.255 | – | 0.379 | 0.61 | 0.43 | 0.506 | 0.74 | 0.124 | – | – | – | – | – | – | – | – | – |
| CN(C)S(=O)(=O)c1cccc(-c2nc3sc4c(c3c(=O)[nH]2)CCCC4)c1 | > 100 | > 100 | > 100 | > 100 | – | 4.01 | > 100 | – | – | > 100 | > 100 | 3.24 | > 100 | – | 2.38 | – | 1.35 | > 100 | – |
| O=C(/C=C/c1ccsc1)c1ccc(Cl)s1 | 52 | > 100 | > 100 | 63.9 | > 100 | > 100 | > 100 | > 100 | – | > 100 | – | – | – | – | – | – | – | – | – |
| CC1=NN(C(=O)c2ccccc2)C(=O)C1N=Nc1ccccc1C(=O)O (configuration not stated) | > 100 | > 100 | > 100 | > 50.7 | > 100 | > 100 | > 100 | > 78.1 | > 100 | > 73.7 | – | – | – | – | – | – | – | – | – |
| CCOC(=O)CCc1c(C)c2c(O)cc(O)cc2oc1=O | > 100 | > 100 | > 100 | > 100 | > 100 | > 100 | > 100 | > 100 | > 100 | > 100 | – | – | – | – | – | – | – | – | – |
